This passage reports Activity results from ChEMBL document CHEMBL1155497, “Double stranded DNA discrimination by di-pyrene modified gamma-cyclodextrin” (Bioorg Med Chem Lett, 2010).

The structures appear in SMILES notation. The source made the active and inactive calls. The calls are words filed in the database; no cut-off is given here.

Holding throughout (assay type): nucleic-acid assay
For assay [1], the system named is Nucleic Acid. The experiment in a line: Binding affinity to double strand DNA assessed as increase in fluorescence intensity at 0.6 uM by fluorescence spectroscopy technique.
Assay [2] deals with Nucleic Acid. The experiment in a line: Binding affinity to single strand DNA assessed as increase in fluorescence intensity at 0.6 uM by fluorescence spectroscopy technique.
Assay [3] relates to Nucleic Acid. Description: Binding affinity to single strand DNA assessed as increase in fluorescence intensity at 0.1 uM by fluorescence spectroscopy technique.
Assay [4] relates to Nucleic Acid. Description: Binding affinity to double strand DNA assessed as increase in fluorescence intensity at 0.1 uM by fluorescence spectroscopy technique.
Assay [5] deals with Nucleic Acid. The experiment in a line: Binding affinity to double strand DNA assessed as increase in fluorescence intensity using > 0.00075 uM of DNA at 0.3 uM by fluorescence spectroscopy technique.
In assay [6] the test system is Nucleic Acid. The experiment in a line: Binding affinity to double strand DNA assessed as increase in fluorescence intensity using 0.00075 uM of DNA at 0.3 uM by fluorescence spectroscopy technique.
Assay [7] concerns Nucleic Acid. The experiment in a line: Binding affinity to single strand DNA assessed as increase in fluorescence intensity at 0.3 uM by fluorescence spectroscopy technique.
For assay [8], the system named is Nucleic Acid. Description: Binding affinity to single strand DNA assessed as increase in fluorescence intensity using 0.00075 uM of DNA by fluorescence spectroscopy technique.
Assay [9] deals with Nucleic Acid. The experiment in a line: Binding affinity to double strand DNA assessed as increase in fluorescence intensity by fluorescence spectroscopy technique.
Assay [10] deals with Nucleic Acid. Description: Binding affinity to single strand DNA assessed as increase in fluorescence intensity using > 0.00075 uM of DNA by fluorescence spectroscopy technique.

For `O=C(CSC[C@H]1O[C@@H]2O[C@@H]3[C@@H](CO)C[C@H](O[C@H]4[C@H](O)[C@@H](O)[C@@H](O[C@H]5[C@H](O)[C@@H](O)[C@@H](O[C@H]6[C@H](O)[C@@H](O)[C@@H](O[C@H]7[C@H](O)[C@@H](O)[C@@H](O[C@H]8[C@H](O)[C@@H](O)[C@@H](O[C@H]9[C@H](O)[C@@H](O)[C@@H](O[C@H]1[C@H](O)[C@H]2O)O[C@@H]9CO)O[C@@H]8CSCC(=O)NCCOCCOCCOCc1ccc2ccc8cccc9ccc1c2c89)O[C@@H]7CO)O[C@@H]6CO)O[C@@H]5CO)O[C@@H]4CO)[C@H](O)[C@H]3O)NCCOCCOCCOCc1ccc2ccc3cccc4ccc1c2c34`, the result in assay [1], in assay [2], in assay [3] and in [4] was inactive.
Take `O=C(NCCOCCOCCOCc1ccc2ccc3cccc4ccc1c2c34)SC[C@H]1O[C@@H]2O[C@H]3[C@H](O)[C@@H](O)[C@@H](O[C@H]4[C@H](O)[C@@H](O)[C@@H](O[C@@H]5[C@@H](CO)C[C@H](O[C@H]6[C@H](O)[C@@H](O)[C@@H](O[C@H]7[C@H](O)[C@@H](O)[C@@H](O[C@H]8[C@H](O)[C@@H](O)[C@@H](O[C@H]9[C@H](O)[C@@H](O)[C@@H](O[C@H]1[C@H](O)[C@H]2O)O[C@@H]9CO)O[C@@H]8CO)O[C@@H]7CO)O[C@@H]6CSC(=O)NCCOCCOCCOCc1ccc2ccc6cccc7ccc1c2c67)[C@H](O)[C@H]5O)O[C@@H]4CO)O[C@@H]3CO`: the result in assay [5] and in [7] was inactive. Also, the result in assay [6] was Active.
In the case of `CCCN(CCCN(C)C)C1=CC(Cc2sc3ccccc3[n+]2C)c2ccccc2N1c1ccccc1` (stereo not given), the outcome in assay [8], in assay [9] and in assay [10] was Active.
